From patent US11554097B2, “Recombinant production of hybrid lipid-biopolymer materials that self-assemble and encapsulate agents” (Duke University, priority 2017, dated 2023)

What was measured:
[1] = cited from earlier work
[2] = Encapsulated drug stability, dialysis against PBS; type: physicochemical
Experimental: Encapsulated drug stability: To measure the encapsulated drug's stability, we selected the encapsulated DOX M-EL[…],80 sample as a model system. […] Free DOX and encapsulated DOX were both made to 400 μM and 250 μL was added with a syringe to small volume Slide-a-Lyzer dialysis cassettes with a 3,500 Da molecular weight cutoff. […] At various time points, 3 mL of the filtrate was removed and replaced with fresh PBS. The fluorescence of the starting sample, filtrate, and retentate were measured in duplicate with a Wallac 1420 Victor3 Plate Reader (Perkin Elmer). Relative fluorescing units were converted to DOX concentrations using a standard curve made using serial dilution of free and encapsulated DOX. […] The cumulative DOX released was calculated and plotted as a function of dialysis time. […] At the end of the one week study, the retentate from each sample was removed and measured.

COc1cccc2c1C(=O)c1c(O)c3c(c(O)c1C2=O)C[C@@](O)(C(=O)CO)C[C@@H]3O[C@H]1C[C@H](N)[C@H](O)[C@H](C)O1 [DOXFree, doxorubicin]
octanol-water distribution coefficient (log D pH 7.5) [1]: 2.4
DOX filtered out of cassette ([2]; after a week at 37° C.): 99%
time to reach equilibrium in dialysis ([2]; dialysis against PBS, 37° C.): ≤ 24 h
